Data: patent publication US20030216361A1, “Therapeutic compositions effective against gram positive bacteria” (priority 2000, published 2003)
“And” between values parts separate entries of the source, which are not always exact repeats. Equal entries are not always repeated.

Test system: ATCC 14154, mouse virulent Staphylococcus aureus
Test: Mouse model of topical Gram positive (Staphylococcus aureus) infection, infected suture
Format: in vivo
Details: Group 5 enrofloxacin (Baytril) 10 mg/kg SQ SID×7 days, mice
Experimental: The model, as described in J. Gisby and J. Bryant, Antimicrobial Agents and Chemotherapy, February 2000, Vol. 44, No. 2, p 255-260, was used.
Fifty HSD:ICR male mice weighing 12-14 grams were ordered and allowed to acclimate 7 days. Mice were allocated to 5 groups of 10 animals each.
Group 1: infected suture placed, no treatment
Group 2: topical GRPB, 12.5 mg/kg BID×7 days
Group 3: topical GRPB, 25 mg/kg BID×7 days
Group 4: clean suture, no treatment
Group 5: enrofloxacin (Baytril) 10 mg/kg SQ SID×7 days
ATCC 14154, mouse virulent Staphylococcus aureus was grown in BHI broth overnight (12 hours) at 38 degrees C. Forty-five minutes prior to surgery, silk suture (2-0 size, 1 cm lengths w/swaged-on blunt needle) was soaked in the broth for 30 minutes, excess liquid was then removed by blotting with filter paper.
Mice were anesthetized with a ketamine (40 mg/kg), midazolam (2 mg/kg), and butorphanol (0.1 mg/kg) as a single IP injection.
The skin on the back of the mouse was prepared for aseptic surgery by clipping, cleansing with iodine scrub, and rinsing with alcohol. Mice were kept warm during surgery on a recirculating hot water blanket.
The suture was placed just under the skin on the dorsum of the animal using sterile instruments. The suture was knotted in the subcutaneous tissue to keep it in place. A half-thickness skin wound was made over the suture using the side of an 18 gauge needle as a scalpel.
Mice were allowed to recover in the home cage.
GRPB-10-15A was reconstituted as directed, using a minimal amount of methanol followed by dilution to required volume in sterile physiologic saline.
Injections were given using insulin syringes with 30 gauge needles. Topical administration was placed over the wound site. The mice were first treated 4 hours after surgery and were treated once or twice daily thereafter.
After 7 days of treatment animals were euthanized with IP pentobarbital euthanasia solution. The suture lengths were removed and placed in 2 mls phosphate buffered saline. Serial dilutions were performed and results reported as actual counts (number of Staph colonies per suture).

CCN1CCN(c2cc3c(cc2F)c(=O)c(C(=O)O)cn3C2CC2)CC1 [Baytril, enrofloxacin, reference compound]
Total colonies (number of Staph colonies per suture), individual animals (animals 1-10, 10 mg/kg): 18 colonies per suture and 30 colonies per suture and 24 colonies per suture and 100 colonies per suture and 0 colonies per suture (2×) and 74 colonies per suture and 13 colonies per suture and 740 colonies per suture and 22 colonies per suture
Total colonies (number of Staph colonies per suture), Ave. (average of 10 animals): 102 colonies per suture
